# Source: US8188127B2, “Microbicidal composition” (Rohm and Haas Company, priority 2007, dated 2012)
# “And” between values parts separate entries of the source, which are not always exact repeats. Equal values may be shown once.
# Experiments:
# Assay type in all cases: cell-based
# [1] = tested on: A. niger ATCC # 16404; assay: Microtiter plate MIC / synergy test (Kull synergy index), mold, PDB medium; conditions: for Ca: MIC of BIOBAN1246 alone / Ca: MIC of TCMTB alone: component alone; for Ca: ppm AI of first component (A) alone (MIC, QA) / Cb: ppm AI of MBIT alone (MIC, QB): A. niger; for Ca: MIC of first component (A) alone (QA) / Cb: MIC of MBIT alone (QB): PDB medium, 25° C.
# Text: (§1) One measure of synergism is the industrially accepted method described by Kull, F. C.; Eisman, P. C.; Sylwestrowicz, H. D. and Mayer, R. L., in Applied Microbiology 9:538-541 (1961), using the ratio determined by the formula: Qa/QA+Qb/QB=Synergy Index (“SI”) wherein: • QA=concentration of compound A (first component) in ppm, acting alone, which produced an end point (MIC of Compound A). • Qa=concentration of compound A in ppm, in the mixture, which produced an end point. • QB=concentration of compound B (second component) in ppm, acting alone, which produced an end point (MIC of Compound B). • Qb=concentration of compound B in ppm, in the mixture, which produced an end point.
# (§2) When the sum of Qa/QA and Qb/QB is greater than one, antagonism is indicated. […] The lower the SI, the greater the synergy shown by that particular mixture. The minimum inhibitory concentration (MIC) of a microbicide is the lowest concentration tested under a specific set of conditions that prevents the growth of added microorganisms.
# (§3) Synergy tests were conducted using standard microtiter plate assays with media designed for optimal growth of the test microorganism. Minimal salt medium supplemented with 0.2% glucose and 0.1% yeast extract (M9GY medium) was used for testing bacteria; Potato Dextrose Broth (PDB medium) was used for testing yeast and mold. In this method, a wide range of combinations of microbicides was tested by conducting high resolution MIC assays in the presence of various concentrations of MBIT. High resolution MICs were determined by adding varying amounts of microbicide to one column of a microtitre plate and doing subsequent […] dilutions using an automated liquid handling system to obtain a series of endpoints ranging from 2 ppm to 10,000 ppm active ingredient.
# (§4) The synergy of the combinations of the present invention was determined against several microorganisms, as described in the Tables below. The bacteria were used at a concentration of about 5×10^6 bacteria per mL and the yeast and mold at 5×10^5 fungi per mL. These microorganisms are representative of natural contaminants in many consumer and industrial applications. […] (yeast and mold) or 30° C. (bacteria).
# (§5) In each test, Second Component (B) was MBIT and the First Component (A) was the other commercial microbicide.
# [2] = tested on: C. albicans ATCC # 10231; assay: Microtiter plate MIC / synergy test (Kull synergy index), yeast, PDB medium; conditions: for Ca: MIC of BIOBAN1246 alone / Ca: MIC of TCMTB alone: component alone; for Ca: ppm AI of first component (A) alone (MIC, QA) / Cb: ppm AI of MBIT alone (MIC, QB): C. albicans; for Ca: MIC of first component (A) alone (QA) / Cb: MIC of MBIT alone (QB): PDB medium, 25° C.
# Text: as §1, §2, §3, §4, §5
# [3] = tested on: Ps. aeruginosa ATCC # 9027; assay: Microtiter plate MIC / synergy test (Kull synergy index), bacteria, M9GY medium; conditions: for Ca: ppm AI of first component (A) alone (MIC, QA) / Cb: ppm AI of MBIT alone (MIC, QB): Ps. aeruginosa
# Experimental: as §2, §3
# The bacteria were used at a concentration of about 5×10^6 bacteria per mL and the yeast and mold at 5×10^5 fungi per mL. These microorganisms are representative of natural contaminants in many consumer and industrial applications. […] (yeast and mold) or 30° C. (bacteria).
# as §5
# [4] = tested on: S. aureus ATCC # 6538; assay: as above; conditions: for Ca: ppm AI of first component (A) alone (MIC, QA) / Cb: ppm AI of MBIT alone (MIC, QB): S. aureus; for Ca: MIC of first component (A) alone (QA) / Cb: MIC of MBIT alone (QB): M9GY medium, 30° C.
# Text: as §1, §2, §3, §4, §5
# [5] = A. niger ATCC # 16404, contact time 3 days
# [6] = A. niger ATCC # 16404, contact time 7 days
# [7] = C. albicans ATCC # 10231, contact time 48 hrs
# [8] = C. albicans ATCC # 10231, contact time 72 hrs
# [9] = Ps. aeruginosa ATCC # 9027, contact time 48 hrs, component alone
# [10] = S. aureus ATCC # 6538, contact time 24 hrs, component alone
# [11] = Ps. aeruginosa ATCC # 9027, contact time 48 hrs, M9GY medium, 30° C.
# [12] = S. aureus ATCC # 6538, contact time 24 hrs
# [13] = S. aureus ATCC # 6538, contact time 48 hrs
compound,measurement,setting,value
CCC12COCN1COC2 [BIOBAN1246],Ca: MIC of BIOBAN1246 alone,[1]; [5],650 ppm AI
same,Ca: MIC of BIOBAN1246 alone,[1]; [6],875 ppm AI
same,Ca: MIC of BIOBAN1246 alone,[2]; [7],3000 ppm AI
same,Ca: MIC of BIOBAN1246 alone,[2]; [8],4250 ppm AI
same,Ca: MIC of BIOBAN1246 alone,"[3]; Ps. aeruginosa ATCC # 9027, contact time 24 hrs, component alone",100 ppm AI
same,Ca: MIC of BIOBAN1246 alone,[3]; [9],150 ppm AI
same,Ca: MIC of BIOBAN1246 alone,[4]; [10],55 ppm AI
same,Ca: MIC of BIOBAN1246 alone,"[4]; S. aureus ATCC # 6538, contact time 48 hrs, component alone",55 ppm AI
"CC1(C)COCN1 [BIOBAN 1135, 4,4-dimethyloxazolidine]","Ca: ppm AI of first component (A) alone (MIC, QA)",[1]; contact time 3 days,525 ppm AI
same,"Ca: ppm AI of first component (A) alone (MIC, QA)",[1]; contact time 7 days,875 ppm AI
same,"Ca: ppm AI of first component (A) alone (MIC, QA)",[2]; contact time 48 hrs,1100 ppm AI
same,"Ca: ppm AI of first component (A) alone (MIC, QA)",[2]; contact time 72 hrs,1100 ppm AI
same,"Ca: ppm AI of first component (A) alone (MIC, QA)",[3]; contact time 24 hrs,100 ppm AI
same,"Ca: ppm AI of first component (A) alone (MIC, QA)",[3]; contact time 48 hrs,100 ppm AI
same,"Ca: ppm AI of first component (A) alone (MIC, QA)",[4]; contact time 24 hrs,55 ppm AI
same,"Ca: ppm AI of first component (A) alone (MIC, QA)",[4]; contact time 48 hrs,55 ppm AI
"OCCN1CN(CCO)CN(CCO)C1 [BIOBAN GK, hexahydro-1,3,5-tris(2-hydroxyethyl)-s-triazine]","Ca: ppm AI of first component (A) alone (MIC, QA)",[1]; contact time 3 days,425 ppm AI
same,"Ca: ppm AI of first component (A) alone (MIC, QA)",[1]; contact time 7 days,650 ppm AI
same,"Ca: ppm AI of first component (A) alone (MIC, QA)",[2]; contact time 48 hrs,875 ppm AI
same,"Ca: ppm AI of first component (A) alone (MIC, QA)",[2]; contact time 72 hrs,875 ppm AI
same,"Ca: ppm AI of first component (A) alone (MIC, QA)",[3]; contact time 24 hrs,55 ppm AI
same,"Ca: ppm AI of first component (A) alone (MIC, QA)",[3]; contact time 48 hrs,55 ppm AI
same,"Ca: ppm AI of first component (A) alone (MIC, QA)",[4]; contact time 24 hrs,55 ppm AI
same,"Ca: ppm AI of first component (A) alone (MIC, QA)",[4]; contact time 48 hrs,55 ppm AI
CCCCCCCC(=O)O [Caprylic acid],Ca: MIC of first component (A) alone (QA),[1]; [5],650 ppm AI
same,Ca: MIC of first component (A) alone (QA),[1]; [6],875 ppm AI
same,Ca: MIC of first component (A) alone (QA),[2]; [7],65 ppm AI
same,Ca: MIC of first component (A) alone (QA),[2]; [8],87.5 ppm AI
same,Ca: MIC of first component (A) alone (QA),[3]; [11],>11000 ppm AI
same,Ca: MIC of first component (A) alone (QA),[4]; [12],425 ppm AI
same,Ca: MIC of first component (A) alone (QA),[4]; [13],425 ppm AI
"Cn1sc2ccccc2c1=O [MBIT, N-methyl-1,2-benzisothiazolin-3-one]",Cb: MIC of MBIT alone (QB),[1]; [5],37.5 ppm AI and 75 ppm AI
same,Cb: MIC of MBIT alone,"[1]; A. niger ATCC # 16404, contact time 3 days, component alone (Table 8)",75 ppm AI
same,Cb: MIC of MBIT alone,"[1]; A. niger ATCC # 16404, contact time 3 days, component alone (Table 9)",37.5 ppm AI
same,Cb: MIC of MBIT alone,"[1]; A. niger ATCC # 16404, contact time 3 days, component alone (Table 10)",37.5 ppm AI
same,Cb: MIC of MBIT alone (QB),[1]; [6],150 ppm AI
same,Cb: MIC of MBIT alone,"[1]; A. niger ATCC # 16404, contact time 7 days, component alone (Table 8)",150 ppm AI
same,Cb: MIC of MBIT alone,"[1]; A. niger ATCC # 16404, contact time 7 days, component alone (Table 9)",150 ppm AI
same,Cb: MIC of MBIT alone,"[1]; A. niger ATCC # 16404, contact time 7 days, component alone (Table 10)",150 ppm AI
same,"Cb: ppm AI of MBIT alone (MIC, QB)",[1]; contact time 3 days,37.5 ppm AI and 75 ppm AI
same,"Cb: ppm AI of MBIT alone (MIC, QB)",[1]; contact time 7 days,150 ppm AI
same,Cb: MIC of MBIT alone (QB),[2]; [7],30 ppm AI
same,Cb: MIC of MBIT alone,"[2]; C. albicans ATCC # 10231, contact time 48 hrs, component alone (Table 8)",30 ppm AI
same,Cb: MIC of MBIT alone,"[2]; C. albicans ATCC # 10231, contact time 48 hrs, component alone (Table 9)",30 ppm AI
same,Cb: MIC of MBIT alone,"[2]; C. albicans ATCC # 10231, contact time 48 hrs, component alone (Table 10)",30 ppm AI
same,Cb: MIC of MBIT alone (QB),[2]; [8],60 ppm AI and 30 ppm AI
same,Cb: MIC of MBIT alone,"[2]; C. albicans ATCC # 10231, contact time 72 hrs, component alone (Table 8)",30 ppm AI
same,Cb: MIC of MBIT alone,"[2]; C. albicans ATCC # 10231, contact time 72 hrs, component alone (Table 9)",30 ppm AI
same,Cb: MIC of MBIT alone,"[2]; C. albicans ATCC # 10231, contact time 72 hrs, component alone (Table 10)",60 ppm AI
same,"Cb: ppm AI of MBIT alone (MIC, QB)",[2]; contact time 48 hrs,30 ppm AI
same,"Cb: ppm AI of MBIT alone (MIC, QB)",[2]; contact time 72 hrs,30 ppm AI
same,Cb: MIC of MBIT alone (QB),"[3]; Ps. aeruginosa ATCC # 9027, contact time 24 hrs, M9GY medium, 30° C.",75 ppm AI
same,Cb: MIC of MBIT alone,"[3]; Ps. aeruginosa ATCC # 9027, contact time 24 hrs, component alone (Table 8)",75 ppm AI
same,Cb: MIC of MBIT alone,"[3]; Ps. aeruginosa ATCC # 9027, contact time 24 hrs, component alone (Table 9)",75 ppm AI
same,Cb: MIC of MBIT alone (QB),[3]; [11],125 ppm AI
same,Cb: MIC of MBIT alone,"[3]; Ps. aeruginosa ATCC # 9027, contact time 48 hrs, component alone (Table 8)",125 ppm AI
same,Cb: MIC of MBIT alone,"[3]; Ps. aeruginosa ATCC # 9027, contact time 48 hrs, component alone (Table 9)",125 ppm AI
same,Cb: MIC of MBIT alone,"[3]; Ps. aeruginosa ATCC # 9027, contact time 48 hrs, component alone (Table 10)",125 ppm AI
same,"Cb: ppm AI of MBIT alone (MIC, QB)",[3]; contact time 24 hrs,75 ppm AI
same,"Cb: ppm AI of MBIT alone (MIC, QB)",[3]; contact time 48 hrs,125 ppm AI
same,Cb: MIC of MBIT alone (QB),[4]; [12],15 ppm AI and 30 ppm AI
same,Cb: MIC of MBIT alone,"[4]; S. aureus ATCC # 6538, contact time 24 hrs, component alone (Table 8)",30 ppm AI
same,Cb: MIC of MBIT alone,"[4]; S. aureus ATCC # 6538, contact time 24 hrs, component alone (Table 9)",30 ppm AI
same,Cb: MIC of MBIT alone,"[4]; S. aureus ATCC # 6538, contact time 24 hrs, component alone (Table 10)",15 ppm AI
same,Cb: MIC of MBIT alone (QB),[4]; [13],30 ppm AI
same,Cb: MIC of MBIT alone,"[4]; S. aureus ATCC # 6538, contact time 48 hrs, component alone (Table 8)",30 ppm AI
same,Cb: MIC of MBIT alone,"[4]; S. aureus ATCC # 6538, contact time 48 hrs, component alone (Table 9)",30 ppm AI
same,"Cb: ppm AI of MBIT alone (MIC, QB)",[4]; contact time 24 hrs,15 ppm AI and 30 ppm AI
same,"Cb: ppm AI of MBIT alone (MIC, QB)",[4]; contact time 48 hrs,30 ppm AI
"O=C([O-])CNCO.[Na+] [SUTTOCIDE A, sodium hydroxymethylglycinate]","Ca: ppm AI of first component (A) alone (MIC, QA)",[1]; contact time 3 days,875 ppm AI
same,"Ca: ppm AI of first component (A) alone (MIC, QA)",[1]; contact time 7 days,1100 ppm AI
same,"Ca: ppm AI of first component (A) alone (MIC, QA)",[2]; contact time 48 hrs,3000 ppm AI
same,"Ca: ppm AI of first component (A) alone (MIC, QA)",[2]; contact time 72 hrs,3000 ppm AI
same,"Ca: ppm AI of first component (A) alone (MIC, QA)",[3]; contact time 24 hrs,87.5 ppm AI
same,"Ca: ppm AI of first component (A) alone (MIC, QA)",[3]; contact time 48 hrs,110 ppm AI
same,"Ca: ppm AI of first component (A) alone (MIC, QA)",[4]; contact time 24 hrs,110 ppm AI
same,"Ca: ppm AI of first component (A) alone (MIC, QA)",[4]; contact time 48 hrs,110 ppm AI
N#CSCSc1nc2ccccc2s1 [TCMTB],Ca: MIC of TCMTB alone,[1]; [5],3 ppm AI
same,Ca: MIC of TCMTB alone,[1]; [6],8.75 ppm AI
same,Ca: MIC of TCMTB alone,[2]; [7],4.25 ppm AI
same,Ca: MIC of TCMTB alone,[2]; [8],5.25 ppm AI
same,Ca: MIC of TCMTB alone,[3]; [9],212.5 ppm AI
same,Ca: MIC of TCMTB alone,[4]; [10],26.25 ppm AI
